The structures appear in SMILES notation.

These results are taken from PMC9229798, “Antioxidant Activity and Cytotoxicity of Aromatic Oligosulfides” (Molecules, 2022).

The nature of assay [1]: DPPH radical scavenging activity. As to conditions: compound solution 0.2 mM in MeOH, DPPH 0.1 mM, 40 min, 20 °C. An excerpt:
The redox activity of organosulfur compounds 1–6 can be assessed by the ability to interact with the stable radical 2,2-diphenyl-1-picrylhydrazyl (DPPH). The delocalization of the radical in the aromatic rings of DPPH ensures its high stability. Therefore, this method is widely used to determine the radical scavenging activity of compounds. It is known that there are two main mechanisms by which antioxidant molecules can deactivate free radicals: hydrogen atom transfer (HAT) and single electron transfer (SET). One of them may dominate depending on the conditions, the structure of the antioxidant and the type of analysis, but both will produce identical final products, despite the difference in mechanisms.
The free radical scavenging activity was evaluated using the stable radical 2,2-diphenyl-1-picrylhydrazyl (DPPH), according to the method described by Brand-Williams with a slight modification. Solutions of compounds in MeOH were studied at a concentration of 0.2 mM. The stock DPPH solution contained 0.2 mM of radical in MeOH. An amount of 0.1 mL of the test compound solution was added to 0.1 mL of DPPH solution (0.2 mM) in each cell so that the initial DPPH concentration in cells was 0.1 mM. The microplate was placed in a spectrophotometer and the decrease in the absorbance values of DPPH solution for 40 min at 20 °C was measured at λmax = 517 nm. The results were expressed as scavenging activity, calculated as follows: scavenging activity, % = [(A0 − A1)/A0] × 100, where A0 is the optical density of the control solution DPPH, and A1 is the optical density of the reaction mixture solution.

Assay [2] in a line: Ferrous ions (Fe2+) chelating activity (FIC). As to conditions: for IC50: Fe2+ chelating activity; for FIC, % of Inhibition: compound 5 mM, ferrozine–Fe2+ complex formation. From the text:
Despite the important biological role of iron, it can cause various pathological diseases, such as neurodegenerative, liver and heart diseases, cancer, and diabetes. In addition, it is able to catalyze the Fenton reaction and lead to the formation of a highly reactive hydroxyl radical. In this regard, the process of transition metal chelation was studied as one of the possible mechanisms of the action of antioxidants. This assay was based on the reaction of binding Fe^2+ ions by the studied compounds under moderately acidic conditions (pH = 6). Unreacted Fe^2+ ions reacted with ferrozine to form a stable dark violet colored complex. […] The chelation of ferrous ions by compounds was estimated by method of Dinis et al.. Briefly, 10 μL of 2 mM FeCl2 was added to 20 μL of the investigated compound (5 mM) and 150 μL of EtOH. The reaction was initiated by the addition of 0.04 mL of 5 mM ferrozine solution. The mixture was left to stand at 35 °C for 10 min. The absorbance of the solution was thereafter measured at 562 nm. The percentage inhibition of ferrozine–Fe^2+ complex formation was calculated as [(A0 − As)/[…]] × 100, where A0 is the absorbance of the control, and As is the absorbance of the compound/standard. Na2EDTA was used as the positive control.

Assay [3] relates to A-549. Put plainly: MTT assay. In kind it is cell-based, human. The following applies: Homo sapiens, A549, 72 h. The procedure: (§1) The antiproliferative activity of aromatic oligosulfides 1–6 was determined against human cell lines, including colon carcinoma HCT-116, breast adenocarcinoma MCF-7, lung adenocarcinoma A-549, colorectal carcinoma SW-480, and non-tumourigenic WI-38, using the MTT assay (Table 4). […] However, some selectivity for cancer cells was evident and the IC50 values for non-tumourigenic cells were slightly higher for compounds 1 and 2.
(§2) Cell survival was determined by the MTT [3-(4,5-[…])-2,5-diphenyl tetrazolium bromide] assay by Niks method with small modifications. HCT-116 (colon carcinoma), MCF-7 (breast adenocarcinoma), A-549 (lung adenocarcinoma) and SW-480 (colorectal carcinoma) human cancer cell lines and WI-38 (cell line composed of fibroblasts) were cultured in DMEM (PanEco, Moscow, Russia) with Glutamin (PanEco, Moscow, Russia) and antibiotics (PanEco, Moscow, Russia) in CO2 (5%) at 37 °C. The compounds were dissolved (20 mM) in DMSO and then added to the cell culture medium at the required concentration with a maximum DMSO content of 0.5 v/v%. At these concentrations, DMSO had no effect on cell viability, as was shown in the control experiments. Cells were cultured in 96-well plates (7000 cells/well) and treated with various concentrations (from […]) of the test compounds as well as doxorubicin at 37 °C for 72 h. Cell viability was determined using the MTT assay, which quantified dehydrogenase activity. Then, the cells were incubated at 37 °C for 50 min with a solution of MTT ([…], 5 mg × mL^−1) (Sigma-Aldrich, St. Louis, MO, USA). The supernatant was discarded, and cells were dissolved in DMSO ([…]). The optical density of the solution was measured at 570 nm with use of a multiwall-plate reader (Anthos Zenyth 2000rt, Biochrom, Cambridge, UK), and the percentage of surviving cells was calculated from the absorbance of untreated cells. Each experiment was repeated at least three times, and each concentration was tested in at least three replicates. Data were presented as a graph of the percentage of surviving cells versus the concentration of the test substances. The meanings of 50% inhibition concentration (IC50) with standard deviation were calculated using GraphPad Prism Version 5.03 for Windows (GraphPad Software, San Diego, CA, USA).

Assay [4] concerns HCT-116. The assay can be described thus: MTT assay. The class given is cell-based, human. The following applies: Homo sapiens, HCT-116, 72 h. The procedure: as §1, §2
The test system of assay [5] is MCF-7. The assay can be described thus: MTT assay. The class given is cell-based, human. As to conditions: Homo sapiens, MCF7, 72 h. The procedure: as §1, §2
Assay [6] has as its system SW-480. The assay can be described thus: MTT assay. The class given is cell-based, human. The following applies: Homo sapiens, SW480, 72 h. The protocol: as §1, §2

As for `c1ccc(SSc2ccccc2)cc1` [Compound 5, diphenyl disulfide], the “DPPH, % (scavenging activity)” value in assay [1] is on record as “non active”. Moreover, the 50% inhibitory concentration (IC50) was found to be 3740 ± 20 µM in assay [2]; 39.2 ± 8.7 µM in assay [3]; 22.1 ± 1.7 µM in assay [4]; 34.8 ± 12.2 µM in assay [5]; 30.6 ± 5.6 µM in assay [6].
As to `CC(C)(C)c1cc(SSc2cc(C(C)(C)C)c(O)c(C(C)(C)C)c2)cc(C(C)(C)C)c1O` [Compound 6, bis(3,5-di-tert-butyl-4-hydroxyphenyl) disulfide], in assay [1], the “DPPH, % (scavenging activity)” value stood at 81.56 ± 0.07%. Moreover, the IC50 in assay [2] was 6100 ± 10 µM; in assay [3], over 50 µM; in assay [4], over 50 µM; in assay [5], over 50 µM; in assay [6], over 50 µM.
Take `COc1ccccc1SSc1ccccc1OC` [Compound 2, bis(2-methoxyphenyl) disulfide]: the “DPPH, % (scavenging activity)” value in assay [1] is “non active”. Also, the IC50 is over 10000 µM in assay [2]; 29.6 ± 7.5 µM in assay [3]; 24.4 ± 2.3 µM in assay [4]; 30.5 ± 5.2 µM in assay [5]; 22.4 ± 3.8 µM in assay [6]. For the same compound, the “FIC, % of Inhibition” value in assay [2] stood at 7.1 ± 0.2%.
On to `COc1ccc(SSc2ccc(OC)c(OC)c2)cc1OC` [Compound 3, bis(3,4-dimethoxyphenyl) disulfide], for which the “DPPH, % (scavenging activity)” value in assay [1] is on record as “non active”. Also, the IC50 is over 10000 µM in assay [2]; 15.5 ± 3.4 µM in assay [3]; 18.9 ± 2.1 µM in assay [4]; 37.7 ± 2.7 µM in assay [5]; 21.7 ± 2.4 µM in assay [6]. In assay [2], the “FIC, % of Inhibition” value is on record as 7.5 ± 0.3%.
As to `c1ccc(SSSc2ccccc2)cc1` [Compound 1, diphenyl trisulfide], the “DPPH, % (scavenging activity)” value in assay [1] is recorded as “non active”. Also, the IC50 turned out to be 7760 ± 20 µM in assay [2]; 43.6 ± 10.1 µM in assay [3]; 18.8 ± 1.4 µM in assay [4]; 37.6 ± 3.7 µM in assay [5]; 23.8 ± 4.5 µM in assay [6]. The “FIC, % of Inhibition” value in assay [2] amounted to 25.8 ± 1.1%.
Turning to `Oc1ccc(SSc2ccc(O)cc2)cc1` [Compound 4, 4,4′-dihydroxydiphenyl disulfide], the “DPPH, % (scavenging activity)” value in assay [1] was determined as 13.42 ± 0.02%. The IC50 in assay [2] came out at 5620 ± 40 µM; in assay [3] it was 29.7 ± 6.1 µM; in assay [4], 22 ± 1.5 µM; in assay [5] it was 45.3 ± 3.1 µM; in assay [6], 39.4 ± 7.9 µM. The “FIC, % of Inhibition” value in assay [2] was determined as 47.2 ± 1.5%.
